# How the values were obtained:
# Leishmania promastigotes = assay: In vitro leishmanicidal assay; assay type: cell-based; conditions: 72 hrs, 22-25° C.
# Procedure: Leishmania promastigotes were grown in bulk early in modified NNN biphasic medium using normal physiological saline. Leishmania parasite promastigotes were cultured with RPMI 1640 medium (Sigma, St. Louis, USA) supplemented with 10% heat inactivated foetal Calf serum (FCS) (PAA Laboratories GmbH, Austria) Parasites at log phase were centrifuged at 2000 rpm for 10 minutes, and washed three times with saline at same speed and time. Parasites were diluted with fresh culture medium to a final density of 1×10^6 cells/ml.
# In a 96-well micro titer plate, medium was added in different wells, 20 μl of the experimental compound was added in medium and serially diluted. 100 μl of parasite culture was added in all wells. Two rows were left for negative and positive control. Negative controls receives medium while the positive control contains varying concentrations of standard antileishmanial compound e.g., Amphotericin B (MP Biomedical Inc.), Pantamidine (ICN Biomedical Inc.). The plate was incubated between 22-25° C. for 72 hrs. […] All assays were run in duplicate (5).
# [1] = system: 3T3 cell lines (Normal Fibroblast cell); assay: Cytotoxic activity against 3T3 cell lines (MTT assay); assay type: cell-based, Mouse; conditions: 72 h, 1-100 μg/mL
# Procedure: Cytotoxic activity of compounds was evaluated in 96-well flat-bottomed micro plates by using the standard MTT (3-[4,5-dimethylthiazole-2-yl]-2,5-diphenyl-tetrazolium bromide) colorimetric assay1. For this purpose, 3T3 (Mouse fibroblast) were cultured in Dulbecco's Modified Eagle's Medium, supplemented with 5% of foetal bovine serum (FBS), 100 IU/mL of penicillin and 100 μg/mL of streptomycin in 25 cm^3 flask, and kept in 5% CO2 incubator at 37° C. Exponentially growing cells were harvested, counted with haemocytometer and diluted with a particular medium. Cell culture with the concentration of 1×10^5 cells/mL was prepared and introduced (100 μL/well) into 96-well plates. After overnight incubation, medium was removed and 200 μL of fresh medium was added with different concentrations of compounds (1-100 μg/mL). After 72 h, 50 μL MTT (2 mg/mL) was added to each well and incubated further for 4 hrs. Subsequently, 100 μL of DMSO was added to each well. The extent of MTT reduction to formazan within cells was calculated by measuring the absorbance at 570 nm, using a microplate ELISA reader (Spectra Max plus, Molecular Devices, CA, USA). The cytotoxicity was recorded as concentration causing 50% growth inhibition for 3T3 cells.
compound,measurement,setting,value
C[C@@H]1[C@H](O)[C@@H](C)/C=C/C=C/C=C/C=C/C=C/C=C/C=C/[C@H](O[C@@H]2O[C@H](C)[C@@H](O)[C@H](N)[C@@H]2O)C[C@@H]2O[C@](O)(C[C@@H](O)C[C@@H](O)[C@H](O)CC[C@@H](O)C[C@@H](O)CC(=O)O[C@H]1C)C[C@H](O)[C@H]2C(=O)O [Amphotericin B],In vitro Leishmanicidal activity IC50 ± S.D,Leishmania promastigotes,0.12 ± 0.10 µg/mL
C[C@@H]1C[C@@H]([C@H](O)CC2CC(=O)NC(=O)C2)C(=O)[C@@H](C)C1 [Cyclohexamide],IC50 ± S.D. 3T3 cell lines,[1],0.26 ± 0.04 µg/mL
N=C(N)c1ccc(OCCCCCOc2ccc(C(=N)N)cc2)cc1 [Pentamidine],IC50,"Leishmania promastigotes; Leishmania, read-out: In vitro Leishmanicidal activity IC50 ± S.D",5.13 ± 0.02 µg/mL

# — US8287921B1, “Formulations against cutaneous leishmaniasis” (priority 2011, dated 2012)
